# Reference: article PMC6935304 (International Journal of Nanomedicine, 2019)
# Read-outs that look alike come from different tables or passages of the source.
# Key:
# plasma proteins [1] = conditions: rat; cited from earlier work
# plasma proteins [2] = conditions: human; cited from earlier work
# plasma proteins [3] = conditions: dog; cited from earlier work
# CSE = experiment: Immunoblot of CSE expression in hearts of heart failure rats; type: in vivo; conditions: rat heart, 6 weeks after myocardial infarction
# [4] = In vitro drug release by dialysis against PBS, HPLC; type: physicochemical; conditions: room temperature
substance,measurement,setting,value
S-propargyl-cysteine [ZYZ-802],Binding rate to plasma proteins,plasma proteins [1],very low
same,Binding rate to plasma proteins,plasma proteins [2],very low
same,Binding rate to plasma proteins,plasma proteins [3],very low
same,CSE expression relative to HF group or DP-LP group,CSE,1.6 times
same,Time to release from the dialysis tubing,[4],≤ 30 min
